Laboratory results: paper PMC6990405, “Synthesis and Structure–Activity relationship of 1-(5-isoquinolinesulfonyl)piperazine analogues as inhibitors of Mycobacterium tuberculosis IMPDH” (European Journal of Medicinal Chemistry, 2019)
In brackets after ≈: the same amount, converted by molar mass.

How the values were obtained:
[1] = system: M. tuberculosis SRMV2.6 (IMPDH Tyr487Cys); format: cell-based, Mycobacterium tuberculosis
[2] = system: M. tuberculosis guaB2 cKD mutant; format: cell-based; details: increase in potency against guaB2 cKD mutant upon guaB2 silencing

| SMILES | MIC90 against SRMV2.6 [1] [µM] | Hyper-sensitivity to guaB2 cKD [2] |
| --- | --- | --- |
| O=C(c1cccc([N+](=O)[O-])c1)N1CCN(S(=O)(=O)c2cccc3cnccc23)CC1 [Compound 18, [4-(isoquinoline-5-sulfonyl)piperazin-1-yl](3-nitrophenyl)methanone] | 50 (≈ 21.3 µg/mL) | 8-fold |
| Cc1ccccc1CNC(=O)N1CCN(S(=O)(=O)c2cccc3cnccc23)CC1 [Compound 48, 4-(isoquinolin-5-ylsulfonyl)-N-(2-methylbenzyl)piperazine-1-carboxamide] | 15.6 (≈ 6.62 µg/mL) | 16–32-fold |
| CC1CCCCC1C(=O)N1CCN(S(=O)(=O)c2cccc3cnccc23)CC1 (stereo not drawn) [Compound 13, [4-(isoquinoline-5-sulfonyl)piperazin-1-yl](2-methylcyclohexyl)methanone] | >250 | 16–32-fold |
| O=C(CC1CCCCC1)N1CCN(S(=O)(=O)c2cccc3cnccc23)CC1 [Compound 22, 2-Cyclohexyl-1-(4-(isoquinolin-5-ylsulfonyl)piperazin-1-yl)ethan-1-one] | >250 | 16-fold |
| O=C(C1CCCCC1)N1CCN(S(=O)(=O)c2cccc3cnccc23)CC1 [Compound 1, Cyclohexyl[4-(isoquinoline-5-sulfonyl)piperazin-1-yl]methanone] | 250 (≈ 96.9 µg/mL) | ∼32-fold |
| O=C(C1CCCCCC1)N1CCN(S(=O)(=O)c2cccc3cnccc23)CC1 [Compound 14, Cycloheptyl[4-(isoquinoline-5-sulfonyl)piperazin-1-yl]methanone] | >250 | 16-fold |
| CC1CN(S(=O)(=O)c2cccc3cnccc23)CCN1C(=O)Nc1ccc2c(c1)OCO2 (stereo not drawn) [Compound 45, N-(benzo[d][1,3]dioxol-5-yl)-4-(isoquinolin-5-ylsulfonyl)-2-methylpiperazine-1-carboxamide] | >100 | 8–16-fold |
| O=C(Nc1ccc2c(c1)OCO2)N1CCCN(S(=O)(=O)c2cccc3cnccc23)CC1 [Compound 44, 4-(isoquinoline-5-sulfonyl)-N-(2H-1,3-benzodioxol-5-yl)-1,4-diazepane-1-carboxamide] | >100 | 8–16-fold |
| O=C(NCc1ccccc1)N1CCN(S(=O)(=O)c2cccc3cnccc23)CC1 [Compound 46, N-benzyl-4-(isoquinolin-5-ylsulfonyl)piperazine-1-carboxamide] | >100 | 8-fold |
